Here are results for 17 compounds from patent US20260347364A1, “PYRAZOLO[4,3-F]QUINAZOLINE DERIVATIVES AS MODULATORS OF G12D MUTANT KRAS USEFUL FOR THE TREATMENT OF CANCER” (JAZZ PHARMACEUTICALS IRELAND LTD., priority 2023, published 2026).

One experiment has as its target T1, KRAS G12D (Homo sapiens, UniProt P01116, G12D).
T1 construct: aa1-188 KRAS WT, HRAS WT, NRAS WT, or KRAS containing the G12D
Briefly: HTRF nucleotide exchange assay, KRAS G12D. The following applies: class symbols; for IC50: HTRF nucleotide exchange assay (NEA). Type of experiment: biochemical. Background: TR-FRET usually uses a lanthanide donor and a delayed reading to cut background.

For another experiment, the target named is T2, KRAS WT (Homo sapiens, UniProt P01116).
T2 construct: aa1-188 KRAS WT
Briefly: HTRF nucleotide exchange assay, KRAS WT. The following applies: class symbols; for IC50: HTRF nucleotide exchange assay (NEA). The format is biochemical.

For orientation: IC50 means the concentration at which inhibition is half-maximal. A higher IC50 goes with weaker potency. Regarding `CCc1c(F)ccc2cc(O)cc(-c3c(C)c4nc(OC[C@@]56CCCN5C[C@H](F)C6)nc(N5CCCn6nc(C(=O)N(C)C)cc6C5)c4c4cn(C)nc34)c12` [Example 80, 5-[4-(8-ethyl-7-fluoro-3-hydroxy-1-naphthyl)-2,5-dimethyl-7-[[(2R,8S)-2-fluoro-1,2,3,5,6,7-hexahydropyrrolizin-8-yl]methoxy]pyrazolo[4,3-f]quinazolin-9-yl]-N,N-dimethyl-4,6,7,8-tetrahydropyrazolo[1,5-a][1,4]diazepine-2-carboxamide], the IC50 against KRAS G12D and against KRAS WT was at most 10 nM each time.
For `CN(C)C(=O)c1cc2n(n1)CCCN(c1nc(OC[C@@]34CCCN3C[C@H](F)C4)nc3cc(-c4ccc(F)c5sc(N)c(C#N)c45)c4nn(C)cc4c13)C2` [Example 81, 5-[4-(2-amino-3-cyano-7-fluoro-benzothiophen-4-yl)-7-[[(2R,8S)-2-fluoro-1,2,3,5,6,7-hexahydropyrrolizin-8-yl]methoxy]-2-methyl-pyrazolo[4,3-f]quinazolin-9-yl]-N,N-dimethyl-4,6,7,8-tetrahydropyrazolo[1,5-a][1,4]diazepine-2-carboxamide], the concentration for half-maximal inhibition (IC50) at KRAS G12D is at most 10 nM; at KRAS WT it was 10 to 100 nM.
Turning to `CCc1c(F)ccc2c(F)c(O)cc(-c3cc4nc(OC[C@@]56CCCN5C[C@H](F)C6)nc(N5CCCn6nc(C(=O)N(C)C)cc6C5)c4c4cn(C)nc34)c12` [Example 82, 5-[4-(8-ethyl-4,7-difluoro-3-hydroxy-1-naphthyl)-2-methyl-7-[[(2R,8S)-2-fluoro-1,2,3,5,6,7-hexahydropyrrolizin-8-yl]methoxy]pyrazolo[4,3-f]quinazolin-9-yl]-N,N-dimethyl-4,6,7,8-tetrahydropyrazolo[1,5-a][1,4]diazepine-2-carboxamide], the IC50 on KRAS G12D and on KRAS WT was at most 10 nM each time.
`CN(C)C(=O)c1cc2n(n1)CCCN(c1nc(OC[C@@]34CCCN3C[C@H](F)C4)nc3cc(-c4cccc5[nH]nc(C#N)c45)c4nn(C)cc4c13)C2` [Example 83, 5-[4-(3-cyano-1H-indazol-4-yl)-2-methyl-7-[[(2R,8S)-2-fluoro-1,2,3,5,6,7-hexahydropyrrolizin-8-yl]methoxy]pyrazolo[4,3-f]quinazolin-9-yl]-N,N-dimethyl-4,6,7,8-tetrahydropyrazolo[1,5-a][1,4]diazepine-2-carboxamide]: at KRAS G12D, the “KRAS^G12D NEA” value was “D (<49% inhibition at 10 μM)”. The “KRAS^WT NEA” value at KRAS WT is given as “D (<49% inhibition at 10 μM)”.
`Cc1cc2[nH]ncc2c(-c2cc3nc(OC[C@@]45CCCN4C[C@H](F)C5)nc(N4CCCn5nc(C(=O)N(C)C)cc5C4)c3c3cn(C)nc23)c1C(F)(F)F` [Example 84, 5-[7-[[(2R,8S)-2-fluoro-1,2,3,5,6,7-hexahydropyrrolizin-8-yl]methoxy]-2-methyl-4-[6-methyl-5-(trifluoromethyl)-1H-indazol-4-yl]pyrazolo[4,3-f]quinazolin-9-yl]-N,N-dimethyl-4,6,7,8-tetrahydropyrazolo[1,5-a][1,4]diazepine-2-carboxamide]: the IC50 was at most 10 nM on KRAS G12D and 10 to 100 nM on KRAS WT.
Compound `Cn1cc2c(n1)c(-c1cccc3sc(N)c(C#N)c13)cc1nc(OC[C@@]34CCCN3C[C@H](F)C4)nc(N3CC4CCC(C3)N4)c12` [Example 86, 2-amino-4-[9-(3,8-diazabicyclo[3.2.1]octan-3-yl)-7-[[(2R,8S)-2-fluoro-1,2,3,5,6,7-hexahydropyrrolizin-8-yl]methoxy]-2-methyl-pyrazolo[4,3-f]quinazolin-4-yl]benzothiophene-3-carbonitrile] returned an IC50 against KRAS G12D of at most 10 nM. Also, on KRAS WT, the “KRAS^WT NEA” value is reported as “D (<49% inhibition at 10 μM)”.
For `CCc1c(F)ccc2cc(O)cc(-c3c(F)c4nc(OC[C@@]56CCCN5C[C@H](F)C6)nc(N5CCCn6nc(C(=O)N(C)C)cc6C5)c4c4cn(C)nc34)c12` [Example 87, 5-[4-(8-ethyl-7-fluoro-3-hydroxy-1-naphthyl)-5-fluoro-2-methyl-7-[[(2R,8S)-2-fluoro-1,2,3,5,6,7-hexahydropyrrolizin-8-yl]methoxy]pyrazolo[4,3-f]quinazolin-9-yl]-N,N-dimethyl-4,6,7,8-tetrahydropyrazolo[1,5-a][1,4]diazepine-2-carboxamide], the IC50 on KRAS G12D and against KRAS WT was at most 10 nM each time.
Consider `CCc1c(F)ccc2cc(O)cc(-c3c(F)c4nc(OC[C@@]56CCCN5C[C@H](F)C6)nc(N5CCCOCC5)c4c4cn(C)nc34)c12` [Example 88, 5-ethyl-6-fluoro-4-[5-fluoro-2-methyl-9-(1,4-oxazepan-4-yl)-7-[[(2R,8S)-2-fluoro-1,2,3,5,6,7-hexahydropyrrolizin-8-yl]methoxy]pyrazolo[4,3-f]quinazolin-4-yl]naphthalen-2-ol], for which the IC50 against KRAS G12D and on KRAS WT was at most 10 nM throughout.
Take `CCc1c(F)ccc2cc(O)cc(-c3cc4nc(OC[C@@]56CCCN5C[C@H](F)C6)nc(N5C6CCC5CN(CCCO)C6)c4c4cn(C)nc34)c12` [Example 89, 5-ethyl-6-fluoro-4-[7-[[(2R,8S)-2-fluoro-1,2,3,5,6,7-hexahydropyrrolizin-8-yl]methoxy]-9-[3-(3-hydroxypropyl)-3,8-diazabicyclo[3.2.1]octan-8-yl]-2-methyl-pyrazolo[4,3-f]quinazolin-4-yl]naphthalen-2-ol]: the IC50 was at most 10 nM on KRAS G12D and 100 to 10000 nM against KRAS WT.
With `Cn1cc2c(n1)c(-c1ccc(F)c3sc(N)c(C#N)c13)cc1nc(OC[C@@]34CCCN3C[C@H](F)C4)nc(N3C4CCC3CN(CCCO)C4)c12` [Example 90, 2-amino-7-fluoro-4-[7-[[(2R,8S)-2-fluoro-1,2,3,5,6,7-hexahydropyrrolizin-8-yl]methoxy]-9-[3-(3-hydroxypropyl)-3,8-diazabicyclo[3.2.1]octan-8-yl]-2-methyl-pyrazolo[4,3-f]quinazolin-4-yl]benzothiophene-3-carbonitrile], on KRAS G12D, the “KRAS^G12D NEA” value was “D (<49% inhibition at 10 μM)”. Moreover, the “KRAS^WT NEA” value at KRAS WT is “D (<49% inhibition at 10 μM)”.
For `CCc1c(F)ccc2cc(O)cc(-c3cc4nc(OC[C@@]56CCCN5C[C@H](F)C6)nc(N5CC6CCC(C5)N6CC(C)O)c4c4cn(C)nc34)c12` (stereo partly drawn) [Example 91, 5-ethyl-6-fluoro-4-[7-[[(2R,8S)-2-fluoro-1,2,3,5,6,7-hexahydropyrrolizin-8-yl]methoxy]-9-[3-(2-hydroxypropyl)-3,8-diazabicyclo[3.2.1]octan-8-yl]-2-methyl-pyrazolo[4,3-f]quinazolin-4-yl]naphthalen-2-ol], the IC50 against KRAS G12D is at most 10 nM; at KRAS WT, 100 to 10000 nM.
On the same counts, the results for `CCc1c(F)ccc2cc(O)cc(-c3c(F)c4nc(OC[C@@]56CCCN5C[C@H](F)C6)nc(N5CCOCC(C)(O)C5)c4c4cn(C)nc34)c12` (stereo partly drawn) [Example 92, 4-[4-(8-ethyl-7-fluoro-3-hydroxy-1-naphthyl)-5-fluoro-2-methyl-7-[[(2R,8S)-2-fluoro-1,2,3,5,6,7-hexahydropyrrolizin-8-yl]methoxy]pyrazolo[4,3-f]quinazolin-9-yl]-6-methyl-1,4-oxazepan-6-ol] are at most 10 nM and at most 10 nM.
Regarding `C#Cc1c(F)ccc2cc(O)cc(-c3c(F)c4nc(OC[C@@]56CCCN5C[C@H](F)C6)nc(N5CCCn6nc(C(=O)N(C)C)cc6C5)c4c4cn(C)nc34)c12` [Example 93, 5-[4-(8-ethynyl-7-fluoro-3-hydroxy-1-naphthyl)-5-fluoro-2-methyl-7-[[(2R,8S)-2-fluoro-1,2,3,5,6,7-hexahydropyrrolizin-8-yl]methoxy]pyrazolo[4,3-f]quinazolin-9-yl]-N,N-dimethyl-4,6,7,8-tetrahydropyrazolo[1,5-a][1,4]diazepine-2-carboxamide], the concentration for half-maximal inhibition (IC50) against KRAS G12D and against KRAS WT was at most 10 nM each time.
Consider `CCc1c(F)ccc2cc(O)cc(-c3cc4nc(OC[C@@]56CCCN5C[C@H](F)C6)nc(N5CCCn6nc(CO)cc6C5)c4c4cn(C)nc34)c12` [Example 94, 5-ethyl-6-fluoro-4-[9-[2-(hydroxymethyl)-4,6,7,8-tetrahydropyrazolo[1,5-a][1,4]diazepin-5-yl]-2-methyl-7-[[(2R,8S)-2-fluoro-1,2,3,5,6,7-hexahydropyrrolizin-8-yl]methoxy]pyrazolo[4,3-f]quinazolin-4-yl]naphthalen-2-ol], for which the IC50 on KRAS G12D and against KRAS WT was at most 10 nM throughout.
As to `CCc1c(F)ccc2cc(O)cc(-c3c(C)c4nc(OC[C@@]56CCCN5C[C@H](F)C6)nc(N5CCC[C@@](C)(O)C5)c4c4cn(C)nc34)c12` [Example 95, (3R)-1-[4-(8-ethyl-7-fluoro-3-hydroxy-1-naphthyl)-2,5-dimethyl-7-[[(2R,8S)-2-fluoro-1,2,3,5,6,7-hexahydropyrrolizin-8-yl]methoxy]pyrazolo[4,3-f]quinazolin-9-yl]-3-methyl-piperidin-3-ol], the IC50 at KRAS G12D and at KRAS WT was at most 10 nM throughout.
Regarding `CCc1c(F)ccc2cc(O)cc(-c3c(C)c4nc(OC[C@@]56CCCN5C[C@H](F)C6)nc(N5CC6CCC(C5)N6)c4c4cn(C)nc34)c12` [Example 96, tert-butyl 3-[4-bromo-7-[[(2R,8S)-2-fluoro-1,2,3,5,6,7-hexahydropyrrolizin-8-yl]methoxy]-2,5-dimethyl-pyrazolo[4,3-f]quinazolin-9-yl]-3,8-diazabicyclo[3.2.1]octane-8-carboxylate], the IC50 at KRAS G12D and against KRAS WT was at most 10 nM throughout.
As to `C#Cc1c(F)ccc2cc(O)cc(-c3c(C)c4nc(OC[C@@]56CCCN5C[C@H](F)C6)nc(N5CCCn6nc(C(=O)N(C)C)cc6C5)c4c4cn(C)nc34)c12` [Example 97, 5-[4-(8-ethynyl-7-fluoro-3-hydroxy-1-naphthyl)-2,5-dimethyl-7-[[(2R,8S)-2-fluoro-1,2,3,5,6,7-hexahydropyrrolizin-8-yl]methoxy]pyrazolo[4,3-f]quinazolin-9-yl]-N,N-dimethyl-4,6,7,8-tetrahydropyrazolo[1,5-a][1,4]diazepine-2-carboxamide], the IC50 at KRAS G12D and against KRAS WT was at most 10 nM in each case.
